Patent US20130072430A1, “METHODS FOR TREATMENT OR PROPHYLAXIS OF KIDNEY OR LIVER DYSFUNCTION” (NPS PHARMACEUTICALS, INC., priority 2010, published 2013)

Test system: Human patients with short bowel syndrome
Assay: Example 2: liver biomarkers (albumin, gamma glutamyl transferase, total bilirubin, ALT, AST, ALP) in short bowel syndrome patients, every four weeks for 24 weeks
Type: in vivo
Details: 0.05 mg/kg/d; for Gamma Glutamyl Transferase Observed Value, Mean / Gamma Glutamyl Transferase Observed Value, Median / ALKALINE PHOSPHATASE Change from Baseline, Median / ALT Change from Baseline, Mean / ALT Change from Baseline, Median / ALT Observed Value, Mean / ALT Observed Value, Median / AST Change from Baseline, Mean / AST Change from Baseline, Median / AST Observed Value, Mean / AST Observed Value, Median / Albumin Change from Baseline, Mean / Albumin Change from Baseline, Median / Albumin Observed Value, Mean / Albumin Observed Value, Median / Alkaline Phosphatase Change from Baseline, Mean / Alkaline Phosphatase Observed Value, Mean / Alkaline Phosphatase Observed Value, Median / Bilirubin Change from Baseline, Mean / Bilirubin Change from Baseline, Median / Bilirubin Observed Value, Mean / Bilirubin Observed Value, Median / Gamma Glutamyl Transferase Change from Baseline, Mean / Gamma Glutamyl Transferase Change from Baseline, Median: n=38; for ALT >10% decrease from Baseline, % of subjects / ALT >10% decrease from Baseline, n subjects / ALT >10% increase from Baseline, % of subjects / ALT >10% increase from Baseline, n subjects / ALT Within 10% of Baseline, % of subjects / ALT Within 10% of Baseline, n subjects / AST >10% decrease from Baseline, % of subjects / AST >10% decrease from Baseline, n subjects / AST >10% increase from Baseline, % of subjects / AST >10% increase from Baseline, n subjects / AST Within 10% of Baseline, % of subjects / AST Within 10% of Baseline, n subjects / Albumin >10% decrease from Baseline, % of subjects / Albumin >10% decrease from Baseline, n subjects / Albumin >10% increase from Baseline, n subjects / Albumin Within 10% of Baseline, % of subjects / Albumin Within 10% of Baseline, n subjects / Alkaline Phosphatase >10% decrease from Baseline, % of subjects / Alkaline Phosphatase >10% decrease from Baseline, n subjects / Alkaline Phosphatase >10% increase from Baseline, % of subjects / Alkaline Phosphatase >10% increase from Baseline, n subjects / Alkaline Phosphatase Within 10% of Baseline, % of subjects / Alkaline Phosphatase Within 10% of Baseline, n subjects / Bilirubin >10% decrease from Baseline, % of subjects / Bilirubin >10% decrease from Baseline, n subjects / Bilirubin >10% increase from Baseline, % of subjects / Bilirubin >10% increase from Baseline, n subjects / Bilirubin Within 10% of Baseline, % of subjects / Bilirubin Within 10% of Baseline, n subjects: m=38
Method: To further confirm the results of Example 1, a further study was conducted involving more individuals and additional diagnostic biomarkers. Human patients with short bowel syndrome were divided into two groups: a control group (43 total individuals) to receive placebo, and an experimental group (42 total individuals) to receive teduglutide at 0.05 mg/kg/day throughout the study. Patients were treated by subcutaneous injection of placebo or the appropriate dose of teduglutide. Known biomarkers of liver function were monitored every four weeks, for 24 weeks. The liver biomarkers tested included albumin, gamma glutamyl transferase, total bilirubin, ALT and AST and ALP. Before administration of placebo or teduglutide, diagnostic biomarker levels were tested to establish a baseline for each individual.
To determine the effect of GLP-2 on the levels of the diagnostic biomarkers, the average level of each biomarker was measured for the placebo and teduglutide treated groups for each visit. Furthermore, the average change from baseline was calculated using the established baseline values. For FIGS. 17-28, p-values were calculated using the t-test.
P values are provided, which were calculated for each distribution of biomarker changes for each week using the chi-squared test.

With `CC[C@H](C)[C@H](NC(=O)[C@H](Cc1ccccc1)NC(=O)[C@H](CC(=O)O)NC(=O)[C@H](CCCNC(=N)N)NC(=O)[C@H](C)NC(=O)[C@H](C)NC(=O)[C@H](CC(C)C)NC(=O)[C@H](CC(N)=O)NC(=O)[C@H](CC(=O)O)NC(=O)[C@H](CC(C)C)NC(=O)[C@@H](NC(=O)[C@@H](NC(=O)[C@H](CC(N)=O)NC(=O)[C@H](CCSC)NC(=O)[C@H](CCC(=O)O)NC(=O)[C@H](CC(=O)O)NC(=O)[C@H](CO)NC(=O)[C@H](Cc1ccccc1)NC(=O)[C@H](CO)NC(=O)CNC(=O)[C@H](CC(=O)O)NC(=O)CNC(=O)[C@@H](N)Cc1c[nH]cn1)[C@@H](C)O)[C@@H](C)CC)C(=O)N[C@@H](CC(N)=O)C(=O)N[C@@H](Cc1c[nH]c2ccccc12)C(=O)N[C@@H](CC(C)C)C(=O)N[C@H](C(=O)N[C@@H](CCC(N)=O)C(=O)N[C@H](C(=O)N[C@@H](CCCCN)C(=O)N[C@H](C(=O)N[C@H](C(=O)N[C@@H](CC(=O)O)C(=O)O)[C@@H](C)O)[C@@H](C)CC)[C@@H](C)O)[C@@H](C)CC` [teduglutide] the “Gamma Glutamyl Transferase Observed Value, Mean” value (Week 16) was 72.4 U/L, the “Gamma Glutamyl Transferase Observed Value, Median” value (Week 16) was 54 U/L and the “ALT >10% decrease from Baseline, % of subjects” value (Week 20) was “(60.5%)”. The “ALT >10% decrease from Baseline, n subjects” value (Week 20) was 23, the “ALT >10% increase from Baseline, % of subjects” value (Week 20) was “(13.2%)” and the “ALT >10% increase from Baseline, n subjects” value (Week 20) was 5. For the same compound, the “ALT Within 10% of Baseline, % of subjects” value (Week 20) was “(26.3%)”, the “ALT Within 10% of Baseline, n subjects” value (Week 20) was 10 and the “AST >10% decrease from Baseline, % of subjects” value (Week 20) was “(52.6%)”. The “AST >10% decrease from Baseline, n subjects” value (Week 20) was 20, the “AST >10% increase from Baseline, % of subjects” value (Week 20) was “(18.4%)” and the “AST >10% increase from Baseline, n subjects” value (Week 20) was 7. The “AST Within 10% of Baseline, % of subjects” value (Week 20) was “(28.9%)”, the “AST Within 10% of Baseline, n subjects” value (Week 20) was 11 and the “Albumin >10% decrease from Baseline, % of subjects” value (Week 20) was “(2.6%)”. For the same compound, the “Albumin >10% decrease from Baseline, n subjects” value (Week 20) was 1, the “Albumin >10% increase from Baseline, n subjects” value (Week 20) was 0 and the “Albumin Within 10% of Baseline, % of subjects” value (Week 20) was “(97.4%)”. For the same compound, the “Albumin Within 10% of Baseline, n subjects” value (Week 20) was 37, the “Alkaline Phosphatase >10% decrease from Baseline, % of subjects” value (Week 20) was “(60.5%)” and the “Alkaline Phosphatase >10% decrease from Baseline, n subjects” value (Week 20) was 23. For the same compound, the “Alkaline Phosphatase >10% increase from Baseline, % of subjects” value (Week 20) was “(7.9%)”, the “Alkaline Phosphatase >10% increase from Baseline, n subjects” value (Week 20) was 3 and the “Alkaline Phosphatase Within 10% of Baseline, % of subjects” value (Week 20) was “(31.6%)”. For the same compound, the “Alkaline Phosphatase Within 10% of Baseline, n subjects” value (Week 20) was 12, the “Bilirubin >10% decrease from Baseline, % of subjects” value (Week 20) was “(65.8%)” and the “Bilirubin >10% decrease from Baseline, n subjects” value (Week 20) was 25. The “Bilirubin >10% increase from Baseline, % of subjects” value (Week 20) was “(21.1%)”, the “Bilirubin >10% increase from Baseline, n subjects” value (Week 20) was 8 and the “Bilirubin Within 10% of Baseline, % of subjects” value (Week 20) was “(13.2%)”. For the same compound, the “Bilirubin Within 10% of Baseline, n subjects” value (Week 20) was 5, the “ALKALINE PHOSPHATASE Change from Baseline, Median” value (Week 20) was −25.5 U/L and the “ALT Change from Baseline, Mean” value (Week 20) was −10.3 U/L. The “ALT Change from Baseline, Median” value (Week 20) was −6.5 U/L, the “ALT Observed Value, Mean” value (Week 20) was 34.8 U/L and the “ALT Observed Value, Median” value (Week 20) was 28.5 U/L. The “AST Change from Baseline, Mean” value (Week 20) was −4.2 U/L, the “AST Change from Baseline, Median” value (Week 20) was −2.5 U/L and the “AST Observed Value, Mean” value (Week 20) was 28.4 U/L. For the same compound, the “AST Observed Value, Median” value (Week 20) was 24.5 U/L, the “Albumin Change from Baseline, Mean” value (Week 20) was -0.6 g/L and the “Albumin Change from Baseline, Median” value (Week 20) was -1 g/L. The “Albumin Observed Value, Mean” value (Week 20) was 41.8 g/L, the “Albumin Observed Value, Median” value (Week 20) was 43 g/L and the “Alkaline Phosphatase Change from Baseline, Mean” value (Week 20) was −28.6 U/L. For the same compound, the “Alkaline Phosphatase Observed Value, Mean” value (Week 20) was 109.8 U/L, the “Alkaline Phosphatase Observed Value, Median” value (Week 20) was 94.5 U/L and the “Bilirubin Change from Baseline, Mean” value (Week 20) was -2.76 µmol/L. For the same compound, the “Bilirubin Change from Baseline, Median” value (Week 20) was -1.7 µmol/L, the “Bilirubin Observed Value, Mean” value (Week 20) was 9.88 µmol/L and the “Bilirubin Observed Value, Median” value (Week 20) was 7.85 µmol/L. The “Gamma Glutamyl Transferase Change from Baseline, Mean” value (Week 20) was −9.6 U/L, the “Gamma Glutamyl Transferase Change from Baseline, Median” value (Week 20) was −8 U/L and the “Gamma Glutamyl Transferase Observed Value, Mean” value (Week 20) was 70.1 U/L. The “Gamma Glutamyl Transferase Observed Value, Median” value (Week 20) was 47.5 U/L, the “ALT >10% decrease from Baseline, % of subjects” value (Week 24) was “(63.2%)” and the “ALT >10% decrease from Baseline, n subjects” value (Week 24) was 24. The “ALT >10% increase from Baseline, % of subjects” value (Week 24) was “(10.5%)”, the “ALT >10% increase from Baseline, n subjects” value (Week 24) was 4 and the “ALT Within 10% of Baseline, % of subjects” value (Week 24) was “(26.3%)”. The “ALT Within 10% of Baseline, n subjects” value (Week 24) was 10, the “AST >10% decrease from Baseline, % of subjects” value (Week 24) was “(63.2%)” and the “AST >10% decrease from Baseline, n subjects” value (Week 24) was 24. For the same compound, the “AST >10% increase from Baseline, % of subjects” value (Week 24) was “(15.8%)”, the “AST >10% increase from Baseline, n subjects” value (Week 24) was 6 and the “AST Within 10% of Baseline, % of subjects” value (Week 24) was “(21.1%)”. For the same compound, the “AST Within 10% of Baseline, n subjects” value (Week 24) was 8, the “Albumin >10% decrease from Baseline, % of subjects” value (Week 24) was “(5.3%)” and the “Albumin >10% decrease from Baseline, n subjects” value (Week 24) was 2. The “Albumin >10% increase from Baseline, n subjects” value (Week 24) was 0, the “Albumin Within 10% of Baseline, % of subjects” value (Week 24) was “(94.7%)” and the “Albumin Within 10% of Baseline, n subjects” value (Week 24) was 36. For the same compound, the “Alkaline Phosphatase >10% decrease from Baseline, % of subjects” value (Week 24) was “(60.5%)”, the “Alkaline Phosphatase >10% decrease from Baseline, n subjects” value (Week 24) was 23 and the “Alkaline Phosphatase >10% increase from Baseline, % of subjects” value (Week 24) was “(15.8%)”. The “Alkaline Phosphatase >10% increase from Baseline, n subjects” value (Week 24) was 6, the “Alkaline Phosphatase Within 10% of Baseline, % of subjects” value (Week 24) was “(23.7%)” and the “Alkaline Phosphatase Within 10% of Baseline, n subjects” value (Week 24) was 9. The “Bilirubin >10% decrease from Baseline, % of subjects” value (Week 24) was “(68.4%)”, the “Bilirubin >10% decrease from Baseline, n subjects” value (Week 24) was 26 and the “Bilirubin >10% increase from Baseline, % of subjects” value (Week 24) was “(15.8%)”. For the same compound, the “Bilirubin >10% increase from Baseline, n subjects” value (Week 24) was 6, the “Bilirubin Within 10% of Baseline, % of subjects” value (Week 24) was “(15.8%)” and the “Bilirubin Within 10% of Baseline, n subjects” value (Week 24) was 6. The “ALKALINE PHOSPHATASE Change from Baseline, Median” value (Week 24) was −24.5 U/L, the “ALT Change from Baseline, Mean” value (Week 24) was −13.5 U/L and the “ALT Change from Baseline, Median” value (Week 24) was −7.5 U/L. The “ALT Observed Value, Mean” value (Week 24) was 28.5 U/L, the “ALT Observed Value, Median” value (Week 24) was 23.5 U/L and the “AST Change from Baseline, Mean” value (Week 24) was −5.8 U/L. For the same compound, the “AST Change from Baseline, Median” value (Week 24) was −5 U/L, the “AST Observed Value, Mean” value (Week 24) was 25.8 U/L and the “AST Observed Value, Median” value (Week 24) was 23 U/L. The “Albumin Change from Baseline, Mean” value (Week 24) was -0.4 g/L, the “Albumin Change from Baseline, Median” value (Week 24) was 0 g/L and the “Albumin Observed Value, Mean” value (Week 24) was 41.9 g/L. For the same compound, the “Albumin Observed Value, Median” value (Week 24) was 42 g/L, the “Alkaline Phosphatase Change from Baseline, Mean” value (Week 24) was −29.2 U/L and the “Alkaline Phosphatase Observed Value, Mean” value (Week 24) was 106.2 U/L. For the same compound, the “Alkaline Phosphatase Observed Value, Median” value (Week 24) was 88 U/L, the “Bilirubin Change from Baseline, Mean” value (Week 24) was -3.68 µmol/L and the “Bilirubin Change from Baseline, Median” value (Week 24) was -2.35 µmol/L. For the same compound, the “Bilirubin Observed Value, Mean” value (Week 24) was 8.64 µmol/L, the “Bilirubin Observed Value, Median” value (Week 24) was 6.8 µmol/L and the “Gamma Glutamyl Transferase Change from Baseline, Mean” value (Week 24) was −13.6 U/L. The “Gamma Glutamyl Transferase Change from Baseline, Median” value (Week 24) was −6 U/L, the “Gamma Glutamyl Transferase Observed Value, Mean” value (Week 24) was 60.4 U/L and the “Gamma Glutamyl Transferase Observed Value, Median” value (Week 24) was 40.5 U/L.
